Measurements taken from patent US20250340837A1, “CELLS” (University of Geneva, priority 2022, published 2025).

What was measured:
C57Bl/6 ANPGs [1] = experiment: Neurosphere growth and self-propagation induction in low stemness ANPGs; type: cell-based, mouse
Experimental: (B) Picture showing representative triplicate of ANPG spheres cultured for 1 month in a 96 well plate. Phoenix cells are used as positive control. C57Bl/6: ANPGs were cultured in DMEM:F12+N2 and B27 supplements without growth factors. +GF: DMEM:F12+N2 and B27+FGF 10 ng/mL+EGF 20 ng/mL+IGF 50 ng/mL+Heparan Sulfate 50 ng/mL. GF+DS:DMEM:F12+N2 and B27+IGF+EFG+HS+FGF+LDN193189 0.5 μM+SB431542 10 μM. GF+CHIR: DMEM:F12+N2 and B27+IGF+EFG+HS+FGF+CHIR99021 3 μM. +GF+CHIR+DS: DMEM:F12+N2 and B27+IGF+EFG+HS+FGF+LDN193189 0.5 μM+SB431542 10 μM+CHIR99021 3 μM. Phoenix+GF: phoenix ANPG cultured in standard conditions (DMEM:F12+N2 and B27+IGF+EFG+HS+FGF). (C) Graph showing the average sphere area at different time points (up to 38 days). […] (D) Following DNA staining, flow cytometry was performed to determine the percentage of cells engaged in the cell cycle (phase S/G2M; proliferating). […] (E) After reprogramming, ANPGs were differentiated on Matrigel coating following removal of mitogenic factors. […]
(B) Representative pictures of ANPG spheres 4 days following the first passage cultured in “standard” conditions (GF) or (C, left) in conditions to induce stemness (GF+LDN193189 0.5 μM+SB431542 10 μM+CHIR99021 3 μM). […] (D) At every passage, following dissociation with Accutase, ANPGs were counted with a fast read counting chamber. […]

C57Bl/6 ANPGs [2] = experiment: Stemness reprogramming screen with pharmacological modulators plus CHIR99021; type: cell-based, mouse; conditions: 30 days, with CHIR99021 3 μM
Experimental: (C) C57Bl/6 ANPGs were plated at 10,000 cells/well of a 96 well plate and treated with the WNT agonist (CHIR99021; 3 μM) and the above mentioned compounds (B) for 30 days. Graph representing the average growth (% ANPGs cultured in presence of GF+CHIR) after 30 days. […] Data represent the average±SEM of three independent experiments.
C57Bl/6 ANPGs were plated at 10,000 cells/well of a 96 well plate and treated with the WNT agonist (CHIR99021; 3 μM) and various modulator(s).

[3] = system: mouse spiral ganglion explants; experiment: Live Ca2+ imaging in mouse spiral ganglion explants; type: cell-based
Description: (§1) To further explore the excitatory function of differentiated phoenix SGCs, Ca2+ mobilization was studied in response to several physiological stimuli, namely glutamate, ATP, and kainate (FIG. 4). […] Ionomycin, an ionophore facilitating the transport of divalent cations across cell membranes, and thapsigargin, inhibiting the SERCA pump and therefore the transfer of Ca^2+ toward endoplasmic reticulum, were used as positive controls (FIG. 4D). The excitatory pattern of phoenix SGCs was also compared with human fetal sphere-derived ones and mouse spiral ganglion explants using live Ca^2+ imaging. […] Therefore, at any passage and following differentiation, phoenix auditory SGCs resemble the auditory neuron physiology.

phoenix auditory neurons [4] = experiment: Induced Ca2+ cytosolic release (FLUO-8) in differentiated phoenix auditory neurons; type: cell-based, mouse; conditions: for Induction of Ca2+ transients: phoenix auditory neurons after 7 days of differentiation; for EC50: D7 differentiated phoenix SGCs, dose response from max-min amplitude, read-out: EC50 of induced Ca2+ transients
Experimental: (A-C) Kinetics of Ca^2+ transients induced by (A) Glutamate (higher trace for the higher concentration), (B) ATP (higher trace for the higher concentration), (C) Kainate in phoenix auditory neurons after 7 days of differentiation. Phoenix auditory neurons were loaded with Ca^2+ sensitive ratiometric probe (FLUO-8) and stimulated with increasing concentrations of glutamate ([…]), ATP (0.005-10 μM) or kainate (0.02-50 μM). (D) Dose response curves were extracted from the max-min amplitude values, allowing the determination of an EC50 value (in order of highest to lowest effect: Ionomycin, ATP, Glutamate, Thapsigargin and Kainate (no effect for Kainate). (E). Ionomycin and Thapsigargin were used as positive control. Data represent the average+/−SEM of 3 independent experiments.
A total of 32,000 cells/well were differentiated to auditory neurons on a 96-well plate coated with Matrigel, as previously described (Rousset et al., 2020). Differentiated cells were loaded with FLUO-8 (Interchim), according to the manufacturer's protocol. After an incubation period of typically 45 min at 37° C. with the inducing agent or control, the induced cytosolic calcium release was assessed in a FDSS/pCELL Functional Drug Screening System (Hamamatsu). The neuronal kinetics of calcium release was followed over about 10 min following treatment, with one measure every 0.5 s.
as §1
Further, the impact of BDNF and NT-3 alone or in combination on phoenix auditory neurons' glutamatergic function was assessed. Phoenix neuroprogenitors were plated on poly-ornithine and laminin coated 96 well plates and differentiated for 7 days with or without BDNF and NT-3 alone or in combination. To assess effect of neurotrophins, the auditory neuron were stimulated twice with glutamate: first with 10 μM (EC90) and 10 min later with 100 μM, eliciting a maximal glutamatergic response (FIG. 15A). Traces show the Ca2+ mobilization kinetics with 50 ng/mLNT-3+25 ng/mL BDNF (top light curve) or without neurotrophins (bottom dark curve) upon glutamate stimulation as recorded with Ca2+ sensitive ratiometric probe (FLUO-8). Arrows show the max-min amplitude of the response following the first (10 μM) or the second (100 μM) glutamate stimulation. Heatmaps showing the effect of BDNF and NT-3 alone or in combination on Ca2+ release (min-max amplitude) induced by 10 μM glutamate (FIG. 15B) and 100 μM glutamate (FIG. 15C).

[5] = system: human fetal sphere-derived SGCs; experiment: Live Ca2+ imaging in human fetal sphere-derived SGCs; type: cell-based
Description: as §1

stemness-induced ANs = experiment: Glutamate-induced Ca2+ response in stemness-induced auditory neurons (Regenix); type: cell-based, mouse
Experimental: FIG. 21 Phenotypical characterization of stemness induced Auditory Neurons (ANs). (A) C57Bl/6 ANPG, were treated with WNT agonist (CHIR99021; 3 μM) or TGFb antagonist (dual SMAD inhibitors; LDN193189 0.5 μM, SB431542 10 μM) aiming at replicating phoenix ANPG stemness phenotype. After 38 days of induction, stemness-induced ANPGs were differentiated on Matrigel coating following removal of mitogenic factors. BDNF (10 ng/mL), NT-3 (50 ng/mL) and LIF (10 ng/mL) were added during the 7 days of differentiation. (B-E) Immunostainings in differentiated ANs were compared to stemness-induced ANPGs neurospheres at the same passage. (B-B′) B-III tubulin (TUJ, green) and Sox2 (red) stainings were respectively performed in (B) ANPGs and (B′) ANs. (C-C′) B-III tubulin (TUJ, green) and Nestin (Nes, red) stainings were respectively performed in (C) ANPGs and (C′) ANs. D-D′) B-III tubulin (TUJ, green) and S100 (red) stainings were respectively performed in (D) ANPGs and (D′) ANs. E-E′) B-III tubulin (TUJ) and KI67 stainings were respectively performed in (E) ANPGs and (E′) ANs. TUJ staining appears in green in ANPGs and red in ANs and KI67 appears in red in ANPGs and in green in ANs. […] (F-G) Excitatory potential of stemness-induced ANs was tested using live Ca^2+ imaging. Stemness-induced ANPGs were differentiated for 7 days in absence of growth factors. […]

[6] = system: spiral ganglion explants (SGE); experiment: Organotypic spiral ganglion explant culture, neurite outgrowth and intersections (modified Sholl analysis); type: cell-based, mouse; conditions: P7 SGE, 96 h; for Neurite outgrowth (neurite length index, NLI): compared to spontaneous outgrowth
Experimental: FIG. 13 Effect of BDNF and NT-3 alone or in combination on organotypic spiral ganglion explant culture morphology. Spiral ganglion explants (SGE) of freshly dissected P7 old mouse pups were seeded in poly-D-lysin and laminin coated 96 well plates and incubated without (n=94) or with BDNF, NT-3 or combinations of these for 96 h. Neurite outgrowth (A-C) and intersections (D-F) were quantified with representative explant micrographs underneath (G) for the given treatments. Numbers indicate the amount of neurotrophin added in ng/ml. […] In controls, a substantial outgrowth with a mean NLI of 20828 (±5647/4442; n=94), was registered. […] (D-F) Bar graphs show the intersection quantification, representing the approximated number of neurons with outgrowth. […] (A-F) Bars represent geometric means in μm; error bars indicate ±upper and lower 95% confidence intervals for the mean. The shaded area in the bottom section of each graph represents control levels (i.e. levels for samples that were not treated with BDNF and/or NT-3). One-way ANOVA, followed by Tukey-Kramer post-hoc test. Dunn non-parametric comparison with control, *p<0.05, **p<0.01, ***p<0.001.
(§2) Organotypic spiral ganglion explant culture was carried out prior to in vitro phoenix sphere derived neuron assays, as shown in the workflow in FIG. 12. […] After fixation, specimens were stained with DAPI and for β-III-tubulin (TuJI antibody) to address the effect of neurotrophins on neurite outgrowth and neuron numbers, quantified with a modified Sholl analysis routine. For each explant, the neurite length index (NLI) was computed, and associated intersection counts served as approximation for neuron numbers. The lower rows show phoenix auditory neuroprogenitor sphere dissociation and induction of differentiation. To assess the outgrowth morphology, cells were seeded at 7,000 cells/well with presence of NT-3 or BDNF for 72 h. Differentiated cells were stained for β-III-tubulin, GFAP and DAPI for morphological analysis. Parameters such as the total neurite outgrowth, the number of neurons, the number of glial cells and the mean neurite length were assessed using a custom-made Imaris procedure. For a functional evaluation by means of a calcium response assay to glutamate, 30,000 cells were seeded per well and differentiated with supplementation of BDNF, NT-3 or combinations thereof. Via a fluorescent calcium binding dye, the cellular response to glutamate was quantified.
The effect of BDNF and NT-3 alone or in combination on organotypic spiral ganglion explant culture morphology was assessed. […] Neurite outgrowth (FIG. 13 A-C) and intersections (FIG. 13 D-F) were quantified. […]

phoenix auditory neurons [7] = experiment: Morphology of phoenix auditory neurons differentiated with neurotrophins (Imaris); type: cell-based, mouse; conditions: 72 h differentiation; peaking at 100 ng/mL
Experimental: FIG. 14 Impact of BDNF and NT-3 supplementation on morphology of phoenix auditory neurons. Phoenix neuroprogenitors were differentiated for 72 h in presence of various concentrations of BDNF or NT-3 in 96-well plates. […] (A-D) The untreated control is represented by the bar in the left of each of the four graphs, BDNF treated specimens in the bars in the middle of each of the four graphs, and NT-3 treated by the bars on the right of each of the four graphs. The dashed horizontal grey line marks the median of the control group. The numbers on the x-axis denote neurotrophin concentrations in ng/ml. The horizontal lines in the boxes denote the median value and the dots the mean value. Whiskers extend from minimum to maximum. […] Exemplary images of differentiated cells after 72 h in culture and immunohistochemical staining without treatment (E) and supplementation of 100 ng/mL BDNF (F) and 100 ng/mL NT-3 (G). (E-G) Scale bar: 100 μm.
as §2
The impact of BDNF and NT-3 supplementation on morphology of phoenix auditory neurons was also assessed. Phoenix neuroprogenitors were differentiated for 72 h in presence of various concentrations of BDNF or NT-3 in 96-well plates.

Cc1c[nH]c(-c2cnc(NCCNc3ccc(C#N)cn3)nc2-c2ccc(Cl)cc2Cl)n1 [CHIR, CHIR99021]
ability of treated ANPGs to differentiate into neurons and glial cells (C57Bl/6 ANPGs [1]; 7 days differentiation on Matrigel, BIII-tubulin and S-100 staining): able to differentiate into neurons
expansion over passages (C57Bl/6 ANPGs [1]; number of cells/passage up to passage 13): not able to expand

COc1cc(-c2cc(-c3cccc(O)c3)cnc2N)cc(OC)c1OC [compound 48, K02288]
stemness reprogramming, average growth (% ANPGs cultured in presence of GF+CHIR) (C57Bl/6 ANPGs [2]): hits

C=C(C)[C@H]1CN[C@H](C(=O)O)[C@H]1CC(=O)O [kainate]
Evoked Ca2+ transients [3]: did not respond
Induction of Ca2+ transients (phoenix auditory neurons [4]): failed to induce Ca2+ excitatory transmission
Induction of Ca2+ transients (phoenix auditory neurons [4]; listed as Kainate): no effect
Evoked Ca2+ transients [5]: did not respond

Nc1ncnc2c1ncn2[C@@H]1O[C@H](COP(=O)(O)OP(=O)(O)OP(=O)(O)O)[C@@H](O)[C@H]1O [ATP]
EC50 (phoenix auditory neurons [4]): 0.43 µM
Induction of Ca2+ transients (phoenix auditory neurons [4]): Robust Ca^2+ transients

N[C@@H](CCC(=O)O)C(=O)O [glutamate]
Ca2+ response, live Ca2+ imaging (stemness-induced ANs; glutamate 100 uM, siANs differentiated for 7 days): robust Ca2+ response
EC50 of glutamate-induced Ca2+ response (stemness-induced ANs; stemness-induced ANs (Regenix), glutamate increments, 1/2 serial dilutions): within the μM range
EC50 (phoenix auditory neurons [4]): 1.16 µM
EC50 of glutamate-induced Ca2+ response (phoenix auditory neurons [4]; Phoenix ANs, glutamate increments, 1/2 serial dilutions): within the μM range
EC90 (phoenix auditory neurons [4]; first glutamate stimulation of phoenix auditory neurons, read-out: glutamate concentration given as EC90): 10 µM
Induction of Ca2+ transients (phoenix auditory neurons [4]): Robust Ca^2+ transients

B1: brain-derived neurotrophic factor (protein, UniProt P23560 19-247, looked up)
Neurotrophic factor BDNF …: APMKEANIRGQGGLAYPGVRTHGTLESVNGPKAGSRGLTSLADTFEHVIEELLDEDQKVRPNEENNKDADLYTSRVMLSSQVPLEPPLLFLLEEYKNYLDAANMSMRVRRHSDPARRGELSVCDSISEWVTAADKKTAVDMSGGTVTVLEKVPVSKGQLKQYFYETKCNPMGYTKEGCRGIDKRHWNSQCRTTQSYVRALTMDSKKRIGWRFIRIDTSCVCTLTIKRGR
notes: neurotrophin
Intersections (approximated number of neurons with outgrowth) [6]: rose significantly in a dose-dependent manner
Neurite outgrowth (neurite length index, NLI) [6]: significantly enhanced
number of glial cells (exclusively GFAP positive cells) (phoenix auditory neurons [7]): increased in general in a dose depended manner
number of neurons (exclusively beta-III-tubulin positive cells) (phoenix auditory neurons [7]): increased in general in a dose depended manner
total neurite outgrowth (phoenix auditory neurons [7]): increased in general in a dose depended manner

B2: neurotrophin-3 (protein, UniProt P20783 139-257, looked up)
Neurotrophin-3: YAEHKSHRGEYSVCDSESLWVTDKSSAIDIRGHQVTVLGEIKTGNSPVKQYFYETRCKEARPVKNGCRGIDDKHWNSQCKTSQTYVRALTSENNKLVGWRWIRIDTSCVCALSRKIGRT
Intersections (approximated number of neurons with outgrowth) [6]: rose significantly in a dose-dependent manner
Neurite outgrowth (neurite length index, NLI) [6]: significantly enhanced
number of glial cells (exclusively GFAP positive cells) (phoenix auditory neurons [7]): increased in general in a dose depended manner
number of neurons (exclusively beta-III-tubulin positive cells) (phoenix auditory neurons [7]): increased in general in a dose depended manner
total neurite outgrowth (phoenix auditory neurons [7]): increased in general in a dose depended manner
